# Experimental data taken from BindingDB's records for patent US20250011272 (Shanghaiinstitute of Materia Medica, 2025).
# Molecular target: T1, ATP-citrate synthase (Homo sapiens, UniProt P53396)
# T1 sequence (P53396 whole entry): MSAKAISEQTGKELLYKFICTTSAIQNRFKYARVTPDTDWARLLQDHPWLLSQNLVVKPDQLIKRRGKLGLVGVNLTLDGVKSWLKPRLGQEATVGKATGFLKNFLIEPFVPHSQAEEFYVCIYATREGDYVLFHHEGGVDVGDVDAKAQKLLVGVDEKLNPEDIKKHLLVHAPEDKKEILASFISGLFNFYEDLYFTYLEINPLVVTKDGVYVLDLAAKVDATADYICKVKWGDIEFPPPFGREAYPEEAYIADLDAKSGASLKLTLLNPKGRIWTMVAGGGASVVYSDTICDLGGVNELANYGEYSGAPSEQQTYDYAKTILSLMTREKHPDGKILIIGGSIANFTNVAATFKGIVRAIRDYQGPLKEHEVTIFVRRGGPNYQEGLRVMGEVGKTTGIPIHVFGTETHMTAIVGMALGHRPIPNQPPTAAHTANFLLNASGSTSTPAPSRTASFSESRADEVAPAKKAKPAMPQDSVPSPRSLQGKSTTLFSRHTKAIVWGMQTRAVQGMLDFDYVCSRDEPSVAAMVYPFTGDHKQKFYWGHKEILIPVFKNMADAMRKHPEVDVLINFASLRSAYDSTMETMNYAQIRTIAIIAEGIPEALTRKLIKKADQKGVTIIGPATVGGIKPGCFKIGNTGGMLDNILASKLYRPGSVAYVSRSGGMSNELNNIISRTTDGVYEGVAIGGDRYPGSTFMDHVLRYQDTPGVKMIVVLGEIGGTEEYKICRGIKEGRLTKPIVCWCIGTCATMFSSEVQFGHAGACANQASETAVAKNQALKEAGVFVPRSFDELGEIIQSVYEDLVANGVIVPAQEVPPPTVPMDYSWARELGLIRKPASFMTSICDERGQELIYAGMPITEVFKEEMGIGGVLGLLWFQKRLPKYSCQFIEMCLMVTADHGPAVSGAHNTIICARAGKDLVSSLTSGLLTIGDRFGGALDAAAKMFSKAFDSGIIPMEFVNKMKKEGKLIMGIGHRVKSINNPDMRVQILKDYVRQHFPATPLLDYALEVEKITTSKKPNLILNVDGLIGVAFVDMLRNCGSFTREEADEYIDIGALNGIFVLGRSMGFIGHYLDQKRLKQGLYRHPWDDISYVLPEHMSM
# Assay: ACLY Enzyme Activity Assay
# Method: Experimental method: ADP Glo luminescence method was used for determination. It reflects the activity of ACLY enzyme by quantitatively detecting the amount of ADP, and the enzymatic reaction catalyzed by ACLY is proportional to the amount of ADP detected by the luminescent signal. Firstly, the compound is diluted with 10% DMSO, and then […] of compound dilution is added to a 5 μl reaction system, so that the final reaction system has a DMSO content of 2%. The enzymatic reaction catalyzed by ACLY was carried out at 37° C. for 30 minutes. 5 μl reaction mixture contained the following components: 40 mM Tris, pH 8.0, 10 mM MgCl2, 5 mM DTT, ATP, CoA, sodium citrate, and ACLY. After the enzymatic reaction was complete, 2.5 μl of ADP Glo reagent was added to each reaction system and incubated at room temperature for 1 hour. Afterwards, 5 μl of kinase detection reagent was added and incubated at room temperature for 30 minutes. The luminous signal was detected using Envision (PerkinElmer, USA).
row,IC50 [µM],Structure (SMILES)
1,0.76,"O=C(c1ccc(/C(=C/CCCCCCC2(C(=O)O)C=CCC2)CCCCCCC2(C(=O)O)C=CCC2)cc1)N1CCN(c2ccccn2)CC1 (stereo unspecified) [US20250011272, Example M38]"
2,1.3,"O=C(O)c1ccc(-c2ccc(N3CCN(C(=O)c4ccc(/C(=C/CCCCCCC5(C(=O)O)C=CCC5)CCCCCCC5(C(=O)O)C=CCC5)cc4)CC3)nc2)cc1 (stereo unspecified) [US20250011272, Example M39]"
3,1.69,"O=C(c1ccc(/C(=C/CCCCCCC2(C(=O)O)C=CCC2)CCCCCCC2(C(=O)O)C=CCC2)cc1)N1CCN(c2ccccc2F)CC1 (stereo unspecified) [US20250011272, Example M40]"

# Continued, molecule first:
row,Structure (SMILES),IC50 [µM]
1,"CC(CCCCCC/C=C/CCCCCCC(C)(C(=O)O)c1ccccc1)(C(=O)O)c1ccccc1 (stereo unspecified) [US20250011272, Example M16]",4
2,"O=C(O)C1(CCCCCC/C=C/CCCCCCC2(C(=O)O)CC=CC2)CC=CC1 [US20250011272, Example M17]",3.1
3,"O=C(O)C1(CCCCCC/C=C/CCCCCCC2(C(=O)O)CCCCC2)CCCCC1 [US20250011272, Example M18]",16.5
